Laboratory results reported in patent publication US20230391786A1, “cGAS INHIBITORS” (Eli Lilly and Company, priority 2022, published 2023).
Read-outs that look alike come from different tables or passages of the source.

Tests used:
[1] = biological target: recombinant human cGAS (Homo sapiens (Human), UniProt Q8N884); test: In vitro inhibition assay of cGAS activity (cGAMP production, RapidFire mass spectrometry); format: biochemical; conditions: 10 nM recombinant human cGAS, 60 nM 75-bp dsDNA, ATP, GTP, room temperature 3 hours, read-out: IC50 (μM), In vitro inhibition assay for Compounds 95-348
Method in brief: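 Full-length His6-tagged human cGAS (10 nM, E. coli-expressed) was incubated 3 h at room temperature with 60 nM 75-bp dsDNA, ATP, 50 μM GTP and compound at pH 7.5 with 5 mM MgCl2. cGAMP formation was measured by RapidFire mass spectrometry, and IC50 was taken from a 4-parameter logistic fit.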

[2] = test system: cGAS activity in THP1 cells (IFNb as marker); test: Cellular assay to measure cGAS activity (IFNb production in PMA-differentiated THP1 cells stimulated by RDG-Adenovirus-GFP); format: cell-based, human; conditions: PMA differentiated, RDG-Adenovirus-GFP 1000 MOI, IFNb AlphaLISA, overnight incubation, read-out: IC50 (μM), Cellular assay for Compounds 95-348
Method in brief: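 PMA-differentiated THP1 cells were infected with RDG-Adenovirus-GFP at 1000 MOI for 4 h, then exposed overnight to test compounds. IFNb in the supernatant was quantified by AlphaLISA as a cGAS activity marker, and IC50 was fitted with a 4-parameter logistic equation.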

[3] = Homo sapiens, THP-1, THP1 cells

recombinant human cGAS, sequence (Q8N884 whole entry): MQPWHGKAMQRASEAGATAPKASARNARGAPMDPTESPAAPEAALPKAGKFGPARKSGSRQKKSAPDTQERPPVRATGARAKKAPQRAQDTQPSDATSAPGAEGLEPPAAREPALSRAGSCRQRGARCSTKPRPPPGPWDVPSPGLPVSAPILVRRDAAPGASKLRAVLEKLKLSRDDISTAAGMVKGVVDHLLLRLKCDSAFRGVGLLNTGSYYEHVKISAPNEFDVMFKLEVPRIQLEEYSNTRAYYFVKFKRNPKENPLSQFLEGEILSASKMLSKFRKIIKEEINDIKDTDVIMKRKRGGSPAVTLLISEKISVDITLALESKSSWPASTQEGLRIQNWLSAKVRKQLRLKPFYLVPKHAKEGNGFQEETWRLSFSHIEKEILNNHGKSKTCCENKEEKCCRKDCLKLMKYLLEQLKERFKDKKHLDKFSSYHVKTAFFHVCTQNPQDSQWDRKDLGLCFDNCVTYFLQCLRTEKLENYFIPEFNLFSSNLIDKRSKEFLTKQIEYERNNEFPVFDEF

Row | IC50 [1] | IC50 [2, 3] | IC50 ([2]; THP1 cells) | SMILES
1 | 0.0242 µM | 0.56 µM | – | N#CCOc1cc(Cl)c(Cl)c2c1c(-c1cn[nH]c1)c1n2CCN(C(=O)C2COCCO2)C1 (stereo not shown) [Example 288, 2-((6,7-Dichloro-2-(1,4-dioxane-2-carbonyl)-10-(1H-pyrazol-4-yl)-1,2,3,4-tetrahydropyrazino[1,2-a]indol-9-yl)oxy)acetonitrile]
2 | 0.0166 µM | 1.28 µM | – | CC(=O)NC1CCc2c(-c3cn[nH]c3)c3c(OCC#N)cc(Cl)c(Cl)c3n2C1 (stereo not shown) [Example 102, N-[3,4-Dichloro-1-(cyanomethoxy)-10-(1H-pyrazol-4-yl)-6,7,8,9-tetrahydropyrido[1,2-a]indol-7-yl]acetamide]
3 | 0.0273 µM | 7.68 µM | – | CC(=O)NC1Cc2c(-c3cn[nH]c3)c3ccc(Cl)c(Cl)c3n2C1 (stereo not shown) [Example 155, N-(5,6-Dichloro-9-(1H-pyrazol-4-yl)-2,3-dihydro-1H-pyrrolo[1,2-a]indol-2-yl)acetamide]
4 | 0.0398 µM | > 10 µM | – | O=C(CN1C(=O)CSC1=O)N1CCn2c(c(-c3cn[nH]c3)c3ccc(Cl)c(Cl)c32)C1 [Example 307, 3-(2-(6,7-Dichloro-10-(1H-pyrazol-4-yl)-3,4-dihydropyrazino[1,2-a]indol-2(1H)-yl)-2-oxoethyl)thiazolidine-2,4-dione]
5 | 0.0281 µM | 0.331 µM | – | OCc1nnc(-c2[nH]c3c(Cl)c(Cl)ccc3c2-c2cn[nH]c2)o1 [Example 157, (5-(6,7-Dichloro-3-(1H-pyrazol-4-yl)-1H-indol-2-yl)-1,3,4-oxadiazol-2-yl)methanol]
6 | 0.0507 µM | 0.363 µM | – | Cc1nnc(-c2[nH]c3c(Cl)c(Cl)ccc3c2-c2cn[nH]c2)s1 [Example 158, 2-(6,7-Dichloro-3-(1H-pyrazol-4-yl)-1H-indol-2-yl)-5-methyl-1,3,4-thiadiazole]
7 | 0.0138 µM | 0.656 µM | – | O=C(Nc1cc(Cl)c(Cl)c2[nH]cc(-c3cn[nH]c3)c12)C(F)(F)CO [Example 169, N-(6,7-Dichloro-3-(1H-pyrazol-4-yl)-1H-indol-4-yl)-2,2-difluoro-3-hydroxypropanamide]
8 | 0.00376 µM | 0.668 µM | – | CC(=O)N[C@H]1CCn2c1c(-c1cn[nH]c1)c1c(OCC#N)cc(Cl)c(Cl)c12 [Example 232, (S)—N-(5,6-Dichloro-8-(cyanomethoxy)-9-(1H-pyrazol-4-yl)-2,3-dihydro-1H-pyrrolo[1,2-a]indol-1-yl)acetamide]
9 | 0.0118 µM | 0.875 µM | – | FCCOc1cc(Cl)c(Cl)c2[nH]cc(-c3cn[nH]c3)c12 [Example 183, 6,7-Dichloro-4-(2-fluoroethoxy)-3-(1H-pyrazol-4-yl)-1H-indole]
10 | 0.0724 µM | 1.01 µM | – | CC(=S)Nc1cc(Cl)c(Cl)c2[nH]cc(-c3cn[nH]c3)c12 [Example 231, N-[6,7-Dichloro-3-(1H-pyrazol-4-yl)-1H-indol-4-yl]thioacetamide]
11 | 0.061 µM | 4.78 µM | – | N#CCOc1cc(Cl)c(Cl)c2c1c(-c1cn[nH]c1)c1n2CCN(C(=O)c2nccnc2C(=O)N2CCOCC2)C1 [Example 296, 2-((6,7-Dichloro-2-(3-(morpholine-4-carbonyl)pyrazine-2-carbonyl)-10-(1H-pyrazol-4-yl)-1,2,3,4-tetrahydropyrazino[1,2-a]indol-9-yl)oxy)acetonitrile]
12 | 0.0511 µM | – | > 10 µM | CC(=O)N1CCOC(CC(=O)N2CCn3c(c(-c4cn[nH]c4)c4ccc(Cl)c(Cl)c43)C2)C1 (single isomer, unassigned) [Example 265, 2-(4-acetylmorpholin-2-yl)-1-(6,7-dichloro-10-(1H-pyrazol-4-yl)-3,4-dihydropyrazino[1,2-a]indol-2(1H)-yl)ethan-1-one]
13 | 0.0462 µM | > 10 µM | – | CC(=O)N1CCOC(CC(=O)N2CCn3c(c(-c4cn[nH]c4)c4ccc(Cl)c(Cl)c43)C2)C1 (single isomer, unassigned) [Example 264, 2-(4-acetylmorpholin-2-yl)-1-(6,7-dichloro-10-(1H-pyrazol-4-yl)-3,4-dihydropyrazino[1,2-a]indol-2(1H)-yl)ethan-1-one]
14 | 0.0321 µM | 6.97 µM | – | N#CCOc1cc(Cl)c(Cl)c2c1c(-c1cn[nH]c1)c1n2CCN(C(=O)CN2CCOCC2=O)C1 [Example 290, 2-((6,7-Dichloro-2-(2-(3-oxomorpholino)acetyl)-10-(1H-pyrazol-4-yl)-1,2,3,4-tetrahydropyrazino[1,2-a]indol-9-yl)oxy)acetonitrile]
